One may read the IC50 as the midpoint of a concentration-inhibition curve. Higher therefore signals lower potency.

This is an account of results in ChEMBL document CHEMBL4229541, “Vinca alkaloids and analogues as anti-cancer agents: Looking back, peering ahead” (Bioorg Med Chem Lett, 2018).

Holding throughout (assay type): functional, cell-based
Assay [1] has as its system HCT-116. Description: Growth inhibition of human HCT116 cells.
Assay [2] relates to L1210. Description: Growth inhibition of mouse L1210 cells.
Assay [3] relates to HCT-116/VM46. Put plainly: Growth inhibition of human HCT116/VM46 cells.

`CC[C@]1(O)C[C@@H]2CN(CCc3c([nH]c4ccccc34)[C@@](C(=O)OC)(c3cc4c(cc3OC)N(C)[C@@H]3[C@]45CCN4CC=C[C@@](C)(C[C@]3(O)C(=O)OC)[C@H]45)C2)C1`: the IC50 in assay [1] was 560 nM; in assay [2], 550 nM; in assay [3], 5300 nM.

Consider `CC[C@]1(O)C[C@@H]2CN(CCc3c([nH]c4ccccc34)[C@@](C(=O)OC)(c3cc4c(cc3OC)N(C)[C@@H]3[C@]45CCN4CC=C[C@@H](C[C@]3(O)C(=O)OC)[C@H]45)C2)C1`, for which the results for the IC50 in assay [1], in assay [2] and in assay [3] were 400 nM, 610 nM and 3500 nM, respectively.

For `CC[C@]1(O)C[C@@H]2CN(CCc3c([nH]c4ccccc34)[C@@](C(=O)OC)(c3cc4c(cc3OC)N(C)[C@H]3[C@]5(O)C(=O)N(C)CCC5[C@@H]5CCCN6CC[C@]43C56)C2)C1` (some centres undefined), the values for the IC50 in assay [1], in assay [2] and in assay [3] were 520 nM, 570 nM and 6600 nM, respectively.

For `CC[C@]1(O)C[C@@H]2CN(CCc3c([nH]c4ccccc34)[C@@](C(=O)OC)(c3cc4c(cc3OC)N(C)[C@H]3[C@]5(O)C(=O)N(C)CCC5[C@]5(CC)CCCN6CC[C@]43C65)C2)C1` (some centres undefined), the IC50 is 7900 nM in assay [1], 8400 nM in assay [2] and above 10000 nM in assay [3].

`CC[C@]1(N)C[C@@H]2CN(CCc3c([nH]c4ccccc34)[C@@](C(=O)OC)(c3cc4c(cc3OC)N(C)[C@H]3[C@@](O)(C(=O)OC)[C@H](OC(C)=O)[C@]5(CC)C=CCN6CC[C@]43[C@@H]65)C2)C1`: the IC50 is 600 nM in assay [1], 640 nM in assay [2] and above 10000 nM in assay [3].

Turning to `CC[C@]1(SC#N)C[C@@H]2CN(CCc3c([nH]c4ccccc34)[C@@](C(=O)OC)(c3cc4c(cc3OC)N(C)[C@H]3[C@@](O)(C(=O)OC)[C@H](OC(C)=O)[C@]5(CC)C=CCN6CC[C@]43[C@@H]65)C2)C1`, the values for the IC50 in assay [1], in assay [2] and in assay [3] were 550 nM, 560 nM and 2900 nM, respectively.

On to `CC[C@]1(O)C[C@@H]2CN(CCc3c([nH]c4ccccc34)[C@@](C(=O)OC)(c3cc4c(cc3OC)N(C)[C@H]3[C@@](O)(C(=O)OC)[C@H](OC(C)=O)[C@]5(CC)C[C@@H](Cl)CN6CC[C@]43[C@@H]65)C2)C1`, for which the IC50 in assay [1] came to 710 nM; in assay [2], 840 nM; in assay [3], 8600 nM.

Turning to `CC[C@]1(O)C[C@@H]2CN(CCc3c([nH]c4ccccc34)[C@@](C(=O)OC)(c3cc4c(cc3OC)N(C)[C@H]3[C@@](O)(C(=O)OC)[C@H](OC(C)=O)[C@]5(CC)C[C@@H](O)CN6CC[C@]43[C@@H]65)C2)C1`, the IC50 in assay [1] was 7700 nM; in assay [2], 7600 nM; in assay [3] it was above 10000 nM.

In turn, `CC[C@]1(O)C[C@@H]2CN(CCc3c([nH]c4ccccc34)[C@@](C(=O)OC)(c3cc4c(cc3OC)N(C)[C@H]3[C@@](O)(C(=O)OC)[C@H](OC(C)=O)[C@]5(CC)C=CCN6CC[C@]43[C@@H]65)C2)C1` [VINBLASTINE] had an IC50 in assay [3] of 600 nM.

For the compound `CC[C@]1(N=C=S)C[C@@H]2CN(CCc3c([nH]c4ccccc34)[C@@](C(=O)OC)(c3cc4c(cc3OC)N(C)[C@H]3[C@@](O)(C(=O)OC)[C@H](OC(C)=O)[C@]5(CC)C=CCN6CC[C@]43[C@@H]65)C2)C1`, the values for the IC50 in assay [1], in assay [2] and in assay [3] were 530 nM, 590 nM and 7000 nM, respectively.

With `CC[C@]1(O)C[C@@H]2CN(CCc3c([nH]c4ccccc34)[C@@](C(=O)OC)(c3cc4c(cc3OC)N(C)[C@H]3[C@@](O)(C(=O)OC)[C@H](C(=O)OC)[C@]5(CC)C=CCN6CC[C@]43[C@@H]65)C2)C1`, the IC50 in assay [1] was determined as 6.1 nM; in assay [2], 8.1 nM.

`CC[C@]1(O)C[C@@H]2CN(CCc3c([nH]c4ccccc34)[C@@](C(=O)OC)(c3cc4c(cc3OC)N(C)[C@@H]3[C@]45CCN4CC=C[C@@](CC)(C[C@]3(O)C(=O)OC)[C@H]45)C2)C1`: the IC50 was 60000 nM in assay [1], 58000 nM in assay [2] and 660000 nM in assay [3].

In the case of `CC[C@]1(N=[N+]=[N-])C[C@@H]2CN(CCc3c([nH]c4ccccc34)[C@@](C(=O)OC)(c3cc4c(cc3OC)N(C)[C@H]3[C@@](O)(C(=O)OC)[C@H](OC(C)=O)[C@]5(CC)C=CCN6CC[C@]43[C@@H]65)C2)C1`, the IC50 in assay [1] stood at 690 nM; in assay [2], 670 nM; in assay [3], 5500 nM.

Consider `CC[C@]1(O)C[C@@H]2CN(CCc3c([nH]c4ccccc34)[C@@](C(=O)OC)(c3cc4c(cc3OC)N(C)[C@H]3[C@@](O)(C(=O)OC)[C@H](OC(C)=O)[C@]5(CC)C[C@H](O)CN6CC[C@]43[C@@H]65)C2)C1`, for which the results for the IC50 in assay [1], in assay [2] and in assay [3] were 630 nM, 610 nM and above 10000 nM, respectively.
